The values below come from BindingDB's records for doi:10.1002/cbic.201200272 (Yonsei University, 2012).

The target of this experiment is T1, Pancreatic alpha-amylase (Sus scrofa, UniProt P00690).
T1 sequence (P00690 whole entry): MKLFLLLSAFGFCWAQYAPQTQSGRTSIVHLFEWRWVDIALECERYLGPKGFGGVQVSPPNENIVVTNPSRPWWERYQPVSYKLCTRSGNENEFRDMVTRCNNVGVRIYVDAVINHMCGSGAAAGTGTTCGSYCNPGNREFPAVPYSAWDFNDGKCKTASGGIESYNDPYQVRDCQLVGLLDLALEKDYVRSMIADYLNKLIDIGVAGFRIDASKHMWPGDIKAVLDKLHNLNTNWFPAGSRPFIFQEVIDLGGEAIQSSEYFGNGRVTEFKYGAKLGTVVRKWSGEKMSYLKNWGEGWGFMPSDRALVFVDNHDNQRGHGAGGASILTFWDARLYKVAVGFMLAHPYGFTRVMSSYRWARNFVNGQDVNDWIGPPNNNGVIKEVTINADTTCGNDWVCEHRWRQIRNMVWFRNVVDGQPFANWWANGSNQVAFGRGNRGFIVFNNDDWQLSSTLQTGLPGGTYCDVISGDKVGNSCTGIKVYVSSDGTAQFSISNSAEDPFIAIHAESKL
The experiment can be described thus: Enzymatic Activity Assay. Particulars: pH 7; 37 °C. The source says:
To test whether GCTs share a common binding pocket on PPA with acarbose, we performed an experiment according to the method of Yonetani and Theorell.
For `CO[C@@H]1O[C@H](Cn2cc(-c3ccccc3)nn2)[C@@H]2OC(C)(C)OC12` (some centres not stated) [GPESB01], the IC50 (in general, the concentration that inhibits the measured activity by half) worked out at 361 µM and the Ki (commonly a dissociation constant, usually derived from enzyme kinetics or from competition with a known ligand) turned out to be 780 µM.
In the same order, the values of `CO[C@@H]1O[C@H](Cn2cc(C3=CCCCC3)nn2)[C@@H]2OC(C)(C)OC12` (some centres not stated) [GPESB02] are 150 µM and 342 µM.
In the same order, the values of `CO[C@@H]1O[C@H](Cn2cc(C3(O)CCCCC3)nn2)[C@@H]2OC(C)(C)OC12` (some centres not stated) [GPESB07] are 356 µM and 1010 µM.
In turn, `CO[C@@H]1O[C@H](Cn2cc(COC(C)=O)nn2)[C@@H]2OC(C)(C)OC12` (some centres not stated) [GPESB11] showed an IC50 of 125 µM and a Ki of 234 µM.
Consider `OC1[C@H](O)O[C@H](Cn2cc(-c3ccccc3)nn2)[C@@H]1O` (some centres not stated) [GPESB14], for which the IC50 was 88.9 µM and the Ki was found to be 204 µM.
Taken in the same sequence, the figures for `OC1[C@H](O)O[C@H](Cn2cc(C3=CCCCC3)nn2)[C@@H]1O` (some centres not stated) [GPESB15] were 35.8 µM and 33.6 µM.
